According to patent publication US5332820A, “Dibenzobicyclo(2.2.2) octane angiotensin II antagonists” (priority 1991, dated 1994):

Assays:
[1] = molecular target: AII receptor (rat adrenal cortical microsomes); experiment: Angiotensin II receptor binding (ligand-receptor binding assay; displacement of 3H-AII or 125I-AII); conditions: 2 nM 3H-AII or 0.05 nM 125I-AII, 1 hour, room temperature
Description: The hormone angiotensin II (AII) produces numerous biological responses, e.g., vasoconstriction, through stimulation of its receptors on cell membranes. For the purpose of identifying compounds such as AII antagonists which are capable of interacting with the AII receptor, a ligand-receptor binding assay was utilized for the initial screen. The assay was carried out according to the method described by Glossmann, et al., J. Biol. Chem., 249, 825 (1974), but with some modifications. The reaction mixture contained rat adrenal cortical microsomes (source of AII receptor) in Tris buffer and 2 nM of ^3 H-AII or 0.05 nM ^125 I-AII with or without potential AII antagonist. This mixture was incubated for 1 hour at room temperature and the reaction was subsequently terminated by rapid filtration and rinsing through glass micro-fibre filter. Receptor-bound ^3 H-AII or ^125 I-AII trapped in filter was quantitated by scintillation counting. The inhibitory concentration (IC50) of potential AII antagonist which gives 50% displacement of the total specifically bound ^3 H-AII or ^125 I-AII is a measure of the affinity of such compound for the AII receptor.

Renal Hypertensive Rats = experiment: Antihypertensive effects in renal hypertensive rats, intravenous activity; type: in vivo, rat; conditions: awake renal artery-ligated rats; i.v.; 10 mg/kg (footnote)
Description: This procedure increases blood pressure by increasing renin production with consequent elevation of AII levels. […] Arterial blood pressure is continuously measured directly through a carotid artery cannula and recorded using a pressure transducer and a polygraph. Blood pressure levels after treatment are compared to pretreatment levels to determine the antihypertensive effects of the compounds which were tested.

[2] = test system: renal vasoconstrictor effect of indomethacin and meclofenamate; conditions: dogs; cited from earlier work
[3] = test system: arterial pressure in mammals and man; conditions: cited from earlier work
[4] = test system: effects of AII on the blood pressure of pithed rats; conditions: cited from earlier work
[5] = test system: renal vasoconstrictor effect of indomethacin; conditions: dogs with non-hypotensive hemorrhage; cited from earlier work

Structure (SMILES) | IC50 [1] [nM] | Antihypertensive Effects in Renal Hypertensive Rats, Intravenous Activity (Renal Hypertensive Rats) | also measured
CCCCc1nc(Cl)c(C=O)n1Cc1ccc2c(c1)C1c3ccccc3C2C(C(=O)O)C1C(=O)O (mixture of isomers) [Example 2A, (±)-trans-2-[(2-n-butyl-4-chloro-5-formylimidazol-1-yl)methyl]-9,10-dihydro-9,10-ethanoanthracene-11,12-dicarboxylic acids, both diastereomers] | 220 | + (Significant decrease in blood pressure at 10 mg/kg or less) | –
CCCCc1nc(Cl)c(C=O)n1Cc1ccc2c(c1)C1c3ccccc3C2C(C(=O)O)C1C(=O)O (mixture of isomers) [Example 1, (±)-cis-2-[(2-n-butyl-4-chloro-5-formylimidazol-1-yl)methyl]-9,10-dihydro-9,10-ethanoanthracene-11,12-dicarboxylic acid, a mixture of endo and oxo isomers] | 1100 | + (Significant decrease in blood pressure at 10 mg/kg or less) | –
CCCCc1nc(Cl)c(C=O)n1Cc1ccc2c(c1)C1c3ccccc3C2C(c2nnn[nH]2)C1c1nnn[nH]1 (mixture of isomers) [Example 3, (±)-trans-2-[(2-n-butyl-4-chloro-5-formylimidazol-1-yl)methyl]-9,10-dihydro-9,10-ethano-11,12-bis (1H-tetrazol-5-yl)anthracene, both diastereomers] | 92 | + (Significant decrease in blood pressure at 10 mg/kg or less) | –
CNCC(=O)N[C@@H](CCCN=C(N)N)C(=O)N[C@H](C(=O)N[C@@H](Cc1ccc(O)cc1)C(=O)N[C@H](C(=O)N[C@@H](Cc1cnc[nH]1)C(=O)N1CCC[C@H]1C(=O)N[C@@H](C)C(=O)O)C(C)C)C(C)C [Saralasin] | – | – | inhibition of renal vasoconstrictor effect of indomethacin and meclofenamate [2]: inhibit the renal vasoconstrictor effect of indomethacin and meclofenamate in dogs; effect on arterial pressure when the (elevated) pressure is dependent on circulating AII ([3]; mammals and man, AII-dependent pressure): lower arterial pressure in mammals and man; oral effectiveness ([3]; oral doses): oral doses being ineffective; duration of action ([3]; parenteral administration): relatively short-lasting; effect when the pressure is not sustained by AII (agonistic character) ([3]; pressure not sustained by AII): generally elicits pressor effects; block of the effects of AII on blood pressure of pithed rats [4]: blocks the effects of AII on the blood pressure of pithed rats
CCCCc1nc(Sc2ccccc2)c(C=O)n1Cc1ccc2c(c1)C1c3ccccc3C2C(c2nnn[nH]2)C1c1nnn[nH]1 (mixture of isomers) [Example 4, (±)-trans-2-[(2-n-butyl-4-phenylthio-5-formylimidazol-l-yl)methyl]-9,10-dihydro-9,10-ethano-11,12-bis (1H-tetrazol-5-yl) anthracene: one diastereomer] | 460 | + (Significant decrease in blood pressure at 10 mg/kg or less) | –
CCCCc1nc(Cl)c(C=O)n1Cc1ccc2c(c1)C1c3ccccc3C2C(C(=O)O)C1C(=O)O (mixture of isomers) [Example 2B, (±)-trans-2-[(2-n-butyl-4-chloro-5-formylimidazol-1-yl)methyl]-9,10-dihydro-9,10-ethanoanthracene-11,12-dicarboxylic acids, both diastereomers] | 320 | + (Significant decrease in blood pressure at 10 mg/kg or less) | –
C[C@H](CS)C(=O)N1CCC[C@H]1C(=O)O [captopril] | – | – | reversal of renal vasoconstrictor effect of indomethacin [5]: reverse the renal vasoconstrictor effect of indomethacin in dogs
